This passage reports EC50 results from patent US7745636B2, “Hepatitis C virus inhibitors” (Bristol-Myers Squibb Company, priority 2006, dated 2010).

Molecules are shown by their SMILES.

What is called EC50 is the concentration that produces a half-maximal response.

For one assay, the system named is HCV 1b-377-neo replicon cells. Put plainly: HCV Replicon assay, HCV 1b-377-neo replicon cells. Format: cell-based, HCV 1b genotype. The note with it: Hepatitis C virus, Table 2, read-out: Range (EC50 against HCV 1b). (In general: In antiviral work, replicon cells carry a viral genome segment that copies itself.)
For `COC(=O)N[C@H](C(=O)N1CCC[C@H]1c1ncc(-c2ccc(-c3ccc(-c4cnc([C@@H]5CCCN5C(=O)[C@@H](NC(=O)OC)C(C)C)[nH]4)cc3C(=O)O)cc2)[nH]1)C(C)C` [Example M114, 4,4′-bis(2-((2S)-1-(N-(methoxycarbonyl)-L-valyl)-2-pyrrolidinyl)-1H-imidazol-5-yl)-2-biphenylcarboxylic acid], the EC50 lay within 1000 to 10000 nM.
Still for that read-out and setting: in the case of `COC(=O)N[C@H](C(=O)N1CCC[C@H]1c1ncc(-c2ccc(-c3ccc(-c4cnc([C@@H]5CCCN5C(=O)[C@@H](NC(=O)OC)C(C)C)[nH]4)cc3C(N)=O)cc2)[nH]1)C(C)C` [Example M118, methyl((1S)-1-(((2S)-2-(5-(2′-carbamoyl-4′-(2-((2S)-1-((2S)-2-((methoxycarbonyl)amino)-3-methylbutanoyl)-2-pyrrolidinyl)-1H-imidazol-5-yl)-4-biphenylyl)-1H-imidazol-2-yl)-1-pyrrolidinyl)carbonyl)-2-methylpropyl)carbamate] it was 1000 to 10000 nM.
For the compound `COC(=O)N[C@H](C(=O)N1CCC[C@H]1c1ncc(-c2ccc(-c3ccc(-c4cnc([C@@H]5CCCN5C(=O)[C@@H](NC(=O)OC)C(C)C)[nH]4)cc3CO)cc2)[nH]1)C(C)C` [Example M119, methyl((1S)-1-(((2S)-2-(5-(2-(hydroxymethyl)-4′-(2-((2S)-1-((2S)-2-((methoxycarbonyl)amino)-3-methylbutanoyl)-2-pyrrolidinyl)-1H-imidazol-5-yl)-4-biphenylyl)-1H-imidazol-2-yl)-1-pyrrolidinyl)carbonyl)-2-methylpropyl)carbamate], the EC50 was in the range of 100 to 999 nM.
`COC(=O)N[C@H](C(=O)N1CCC[C@H]1c1ncc(-c2ccc(-c3ccc(-c4cnc([C@@H]5CCCN5C(=O)[C@@H](NC(=O)OC)C(C)C)[nH]4)cc3CN(C)C)cc2)[nH]1)C(C)C` [Example M120, methyl((1S)-1-(((2S)-2-(5-(2-((dimethylamino)methyl)-4′-(2-((2S)-1-((2S)-2-((methoxycarbonyl)amino)-3-methylbutanoyl)-2-pyrrolidinyl)-1H-imidazol-5-yl)-4-biphenylyl)-1H-imidazol-2-yl)-1-pyrrolidinyl)carbonyl)-2-methylpropyl)carbamate]: the EC50 lay within 100 to 999 nM.
The same measure, in the same setting: in the case of `COC(=O)N[C@@H](C(=O)N1CCC[C@H]1c1ncc(-c2ccc(-c3ccc(-c4cnc([C@@H]5CCCN5C(=O)[C@H](NC(=O)OC)c5ccccc5)[nH]4)cc3CN(C)C)cc2)[nH]1)c1ccccc1` [Example M121, dimethyl((2-((dimethylamino)methyl)-4,4′-biphenyldiyl)bis(1H-imidazole-5,2-diyl(2S)-2,1-pyrrolidinediyl((1R)-2-oxo-1-phenyl-2,1-ethanediyl)))biscarbamate] it was 100 to 999 nM.
Still for that read-out and setting: in the case of `COC(=O)N[C@H](C(=O)N1[C@H](c2ncc(-c3ccc(-c4ccc(-c5cnc([C@@H]6C[C@@H]7C[C@@H]7N6C(=O)[C@@H](NC(=O)OC)C(C)C)[nH]5)cc4)cc3)[nH]2)C[C@@H]2C[C@@H]21)C(C)C` [Example M122, methyl((1S)-1-(((1S,3S,5S)-3-(5-(4′-(2-((1S,3S,5S)-2-((2S)-2-((methoxycarbonyl)amino)-3-methylbutanoyl)-2-azabicyclo[3.1.0]hex-3-yl)-1H-imidazol-5-yl)-4-biphenylyl)-1H-imidazol-2-yl)-2-azabicyclo[3.1.0]hex-2-yl)carbonyl)-2-methylpropyl)carbamate] it was 1 to 99 nM; in that of `COCC[C@H](NC(=O)OC)C(=O)N[C@H](c1nc(-c2ccc(-c3ccc(-c4c[nH]c([C@@H]5CCCN5C(=O)[C@H](CCOC)NC(=O)OC)n4)cc3)cc2)c[nH]1)C(C)C` [Example R20, methyl ((1S)-3-methoxy-1-(((2S)-2-(4-(4′-(2-((1S)-1-((N-(methoxycarbonyl)-O-methyl-L-homoseryl)amino)-2-methylpropyl)-1H-imidazol-4-yl)-4-biphenylyl)-1H-imidazol-2-yl)-1-pyrrolidinyl)carbonyl)propyl)carbamate], 0.001 to 0.999 nM.
Same read-out and setting: in the case of `COC(=O)N[C@H](C(=O)N[C@H](c1ncc(-c2ccc(-c3ccc(-c4cnc([C@@H]5CCCN5C(=O)[C@@H](NC(=O)OC)C(C)C)[nH]4)cc3)cc2)[nH]1)[C@@H](C)O)C(C)C` [Example R29] it was 0.001 to 0.999 nM.
`COC(=O)N[C@H](C(=O)Nc1ncc(-c2ccc(-c3ccc(-c4cnc([C@@H]5CCCN5C(=O)[C@@H](NC(=O)OC)C(C)C)[nH]4)cc3)cc2)[nH]1)C(C)C` [Example R33, (S)-2-methoxycarbonylamino-N-(5-(4′-(2-((S)-1-((S)-2-methoxycarbonylamino-3-methylbutanoyl)pyrrolidin-2-yl)-1H-imidazol-5-yl)biphenyl-4-yl)-1H-imidazol-2-yl)-3-methylbutanamide]: the half-maximal effective concentration (EC50) was in the range of 1 to 99 nM.
For `COC(=O)N[C@H](C(=O)N[C@H](c1ncc(-c2ccc(-c3ccc(-c4cnc([C@@H]5CCCN5C(=O)[C@@H](NC(=O)OC)C(C)C)[nH]4)cc3)cc2)[nH]1)C(C)OCc1ccccc1)C(C)C` (stereo partly shown) [Example R34], the EC50 fell in the range of 0.001 to 0.999 nM.
As to `C[C@@H](OCc1ccccc1)[C@H](N)c1ncc(-c2ccc(-c3ccc(-c4cnc([C@@H]5CCCN5)[nH]4)cc3)cc2)[nH]1` [Example R35], the EC50 was in the range of 100 to 999 nM.
Same read-out and setting: the same measure for `COC(=O)NC(C(=O)Nc1ncc(-c2ccc(-c3ccc(-c4cnc([C@@H]5CCCN5C(O)[C@@H](NC(=O)OC)C(C)C)[nH]4)cc3)cc2)[nH]1)C(C)C` (stereo partly shown) [Example R36]: 0.001 to 0.999 nM; for `COC(=O)N[C@H](C(=O)N[C@H](c1nc(-c2ccc(-c3ccc(-c4c[nH]c(C5CCCN5C(=O)[C@@H](NC(=O)OC)[C@@H](C)OC)n4)cc3)cc2)c[nH]1)C(C)C)[C@@H](C)OC` (stereo partly shown) [Example R37]: 0.001 to 0.999 nM.

The same assay, now with this note: Table 2, read-out: Range (EC50 against HCV 1b).
In the case of `COC(=O)NC(C(=O)NC(C)c1ncc(-c2ccc(-c3ccc(-c4cnc(C5CCCN5C(=O)C(NC(=O)OC)C(C)C)[nH]4)cc3)cc2)[nH]1)C(C)C` (stereo not shown) [Example R26], the half-maximal effective concentration (EC50) was 0.001 to 0.999 nM.
Same read-out and setting: in the case of `COC(=O)NC(C(=O)NC(C)c1ncc(-c2ccc(-c3ccc(-c4cnc(C5CCCN5C(=O)C(NC(=O)OC)C(C)OC)[nH]4)cc3)cc2)[nH]1)C(C)OC` (stereo not shown) [Example R27] it was 0.001 to 0.999 nM; in that of `O=C1N[C@H](C(=O)N2CCC[C@H]2c2ncc(-c3ccc(-c4ccc(-c5cnc([C@@H]6CCCN6C(=O)[C@@H]6CCOC(=O)N6)[nH]5)cc4)cc3)[nH]2)CCO1` [LS11], 1000 to 10000 nM.
On the same count and under the same terms, in the case of `C=CCCOC(=O)N[C@H](C(=O)N1CCC[C@H]1c1ncc(-c2ccc(-c3ccc(-c4cnc([C@@H]5CCCN5C(=O)[C@@H](NC(=O)OCCC=C)C(C)C)[nH]4)cc3)cc2)[nH]1)C(C)C` [LS16] it was 1 to 99 nM; in that of `CNCC(=O)N1CCC[C@H]1c1ncc(-c2ccc(-c3ccc(-c4cnc([C@@H]5CCCN5C(=O)[C@@H](NC(=O)OC)C(C)C)[nH]4)cc3)cc2)[nH]1` [LS20], 0.001 to 0.999 nM; in that of `COC(=O)N[C@H](C(=O)N1CCC[C@H]1c1ncc(-c2ccc(-c3ccc(-c4cnc([C@@H]5CCCN5C(=O)CNCc5ccccc5)[nH]4)cc3)cc2)[nH]1)C(C)C` [LS22], 0.001 to 0.999 nM.
On the same count and under the same terms, the same measure for `COC(=O)N[C@H](C(=O)N1CCC[C@H]1c1ncc(-c2ccc(-c3ccc(-c4cnc([C@@H]5CCCN5C(=O)CNC(C)C)[nH]4)cc3)cc2)[nH]1)C(C)C` [LS25]: 0.001 to 0.999 nM; for `COC(=O)N[C@H](C(=O)N1CCC[C@H]1c1ncc(-c2ccc(-c3ccc(-c4cnc([C@@H]5CCCN5C(=O)CN(C(C)C)C(C)C)[nH]4)cc3)cc2)[nH]1)C(C)C` [LS26]: 0.001 to 0.999 nM.
Turning to `CC(C)[C@H](NC(=O)N(C)C)C(=O)O` [OL-2], the EC50 is 0.001 to 0.999 nM.
